Series [1] addresses CYP1A2 (Homo sapiens (Human), UniProt P05177). Nature of the series: Human liver microsomal CYP inhibition assay. Particulars: human liver microsomes, 5-in-1 probe substrate. The class given is in vitro ADME. The method, then: (§1) The purpose of the study was to evaluate the inhibition of the test sample on human liver microsomal cytochrome P450 isozymes (CYP1A2, CYP2C9, CYP2C19, CYP2D6, and CYP3A4) by using the CYP isozyme 5-in-1 probe substrate.
(§2) Mixed human liver microsomes (HLM) were purchased from Corning Inc. (Steuben, N.Y., USA) or XenoTech, LLC. (Lenexa, Kans., USA) or other suppliers, and stored at the temperature below −70° C. prior to use.
(§3) A series of diluted test sample working solution were added to an incubation system containing cofactors of human liver microsomes, a probe substrate and a circulation system, and the control without a test substance but containing a solvent was used as enzyme activity control (100%). The concentration of the metabolite produced by the probe sample in the sample was determined by liquid chromatography-tandem mass spectrometry (LC-MS/MS). Non-linear regression analysis was performed on the concentration of the average percent activity of the test sample by using SigmaPlot (V.11). The IC50 value was calculated by a three-parameter or four-parameter recursive logarithmic equation.

The target of series [2] is CYP2C9 (Homo sapiens (Human), UniProt P11712). Nature of the series: Human liver microsomal CYP inhibition assay. The class given is in vitro ADME. Particulars: human liver microsomes, 5-in-1 probe substrate. On the procedure: as §1, §2, §3
A general note: Microsomes from liver hold many membrane-bound enzymes, among them those of drug oxidation.

Series [3] has as its target CYP2C19 (Homo sapiens (Human), UniProt P33261). Briefly: Human liver microsomal CYP inhibition assay. It counts as in vitro ADME. The note with it: human liver microsomes, 5-in-1 probe substrate. The method, then:
as §1, §2, §3

Series [4] addresses CYP2D6 (Homo sapiens (Human), UniProt P10635). Briefly: Human liver microsomal CYP inhibition assay. The class given is in vitro ADME. Particulars: human liver microsomes, 5-in-1 probe substrate. The method, then:
as §1, §2, §3

Series [5] has as its target CYP3A4 (Homo sapiens (Human), UniProt P08684). Briefly: Human liver microsomal CYP inhibition assay. The class given is in vitro ADME. The note with it: human liver microsomes, 5-in-1 probe substrate. On the procedure: as §1, §2, §3
Series [6] in a line: Distribution of compounds in liver and blood of CD-1 mice. It counts as in vivo. Particulars: single oral dose. The method, then:
Experimental purpose: distribution of compounds in liver and blood of CD-1 mice was tested;
CD-1 Mice (male, 25-35 g, 6-9 weeks old, Shanghai Slack);
Experimental procedure: after oral administration, the drug was distributed in the liver and blood of rodents, candidate compounds in the experiment were formulated into a clear solution to be administered to mice in a single oral dose. The oral solvent was a certain proportion of an aqueous solution of hydroxypropyl P-cyclodextrin or a physiological saline solution. The concentration of the drug in the liver and blood was measured at 1 hour and 4 hours after administration.

Series [7] concerns the target hERG potassium channel (Homo sapiens (Human), UniProt Q12809). Briefly: Inhibition test of hERG potassium ion channel (automatic patch clamp, CHO-hERG cells). The class given is cell-based. The method, then:
The effect of the to-be-tested compound on the potassium ion channel of hERG was detected by a fully automatic patch clamp method.
The cells stably expressing hERG potassium channel used in the experiment were obtained from CHO-hERE of Aviva Biosciences, and CHO-hERG was cultured in 5% CO2 at 37° C.
CHO-hERG cells prepared for the experiment were cultured for at least two days, and the cell density reached 75% or more. Prior to the start of the experiment, cells were digested with TrypLE and then resuspended in extracellular fluid to collect the cells.
The to-be-tested compound and the positive control Amitriptyline were dissolved in DMSO to a certain concentration of the stock solution, and then diluted according to different gradients, and finally added to the extracellular fluid in a certain ratio, and diluted to a concentration to be measured. Visual inspection was performed to see if there was any precipitation before the start of the experiment. Finally, the concentration of DMSO in the to-be-tested solution and the positive control Amitriptyline should not exceed 0.3%.
The clamping potential was kept at −80 mv, first a voltage stimulation of −50 mv was given for 80 ms to record the cell leakage current value, and then was depolarized to +20 mv to be maintained for 4800 ms, the channel of hERG was open, and then repolarized to −50 mv to be maintained 5000 ms, hERG tail current was led out and recorded, and finally, the voltage was returned to the clamping potential of −80 mv to be maintained for 3100 ms. The above voltage stimulation was repeated once every 15000 ms.
hERG QPatch^HTX experiment was performed at room temperature. A whole cell protocol, a voltage stimulation protocol and a compound detection protocol were established on the software of QPatch Assay Software 5.2 (Sophion Bioscience).
First, 30 repeated set voltage stimulations were performed, which was the baseline area for subsequent analysis, followed by the addition of 5 μl of extracellular fluid, repeated for three times. The concentration of each compound added in sequence was repeated three times in a volume of 5 μl. The cells were incubated for at least 5 min at each test concentration. During the entire recording process, the indicators needed to meet the data analysis acceptance criteria. If the standard was not met, the cells would not be included in the analysis scope, and the compounds would be retested. The above recording process was automatically operated by Qpatch analysis software. […]
In each complete current record, based on the percentage of peak current in the negative control, the percent inhibition of the concentration of each compound can be calculated. […]
A general note: Block of hERG is tested as a sign of cardiac risk.

In series [8] the target is T1, VAP-1/SSAO (Homo sapiens (Human), UniProt Q16853). Briefly: Human VAP-1 enzyme activity assay (Amplex Red Monoamine Oxidase kit). It counts as biochemical. The note with it: 10 nM VAP-1 enzyme, 30 min preincubation, benzylamine substrate; read-out: Human Recombinant VAP-1/SSAO Enzyme Inhibitory Activity IC50. The method, then:
Human VAP-1 enzyme activity assay:
The inhibition of the sample on VAP-enzyme activity was measured by using an Amplex® Red Monoamine Oxidase kit (Invitrogen #A12214). 100 nL of the gradiently-diluted to-be-tested compound (solvent DMSO) was added to a 384-well plate. 25 μL of 10 nM VAP-1 enzyme solution was added and incubated for 30 minutes at room temperature. A substrate mixture of VAP-1 enzyme (200 μM Amplex Red, 1 U/mL HRP, 1 mM Benzylamine) was added and incubated for 60 minutes at room temperature. After the incubation, the fluorescent signal was read with a microplate reader Envision (excitation light wavelength 530-560 nm, emission light wavelength 590 nm). The fluorescence signal value after the background signal was removed was analyzed by Prism software, and the IC50 of the sample against the VAP-1 enzyme was calculated.

The target in series [9] is T1, VAP-1/SSAO. Briefly: VAP-1 cell activity assay (HUVEC or CHO cells transfected with VAP-1/pCDNA (3.1) plasmid, Amplex Red). The class given is cell-based. Particulars: HUVEC or CHO cells transfected with VAP-1 plasmid; read-out: VAP-1/SSAO Cellular Inhibitory Activity IC50. On the procedure:
The inhibition of the sample on VAP-1 cell activity was measured by using an Amplex® Red Monoamine Oxidase kit (Invitrogen #A12214).
The cultured HUVEC or CHO cells were plated into a 6-well plate at a density of 0.8 M/well, placed in a 37° C., 5% CO2 incubator for incubation for 24 hours, and then the cells was transferred with a Lipo2000 reagent and a VAP-1/pCDNA (3.1) plasmid, and liquid was changed for the cells after 5 hours (Lipo2000 was toxic to the cells); after 24 hours, the cells were digested and plated into 384-well plates with a density of 25 μl, 10000 cells/well, and liquid was replaced with medium without FBS for the cells after 6-7 hours, and the cell plates were incubated overnight at 37° C. in a 5% CO2 incubator.
1) Dilution of the compound: serial dilution in 4× gradient was carried out with 100% DMSO, 10 points were diluted, the starting concentration of the to-be-tested compound was 0.5 mM (final concentration was 1 μM); 100 nl of compound solution was transferred to a 384-well cell assay plate with ECHO. Negative control wells: 100 nl of DMSO; background control wells: 100 nl DMSO+25 μL medium.
2) The reaction was carried out in the dark at room temperature for 30 min.
3) Preparation of Amplex Red reagent+HRP+benzylamine substrate working solution: Amplex Red reagent+HRP+benzylamine substrate working solution (200 μM Amplex Red reagent+1 U/mL HRP+1 mM benzylamine): 45 μl of 20 mM Amplex Red reagent mother solution, 22.5 μl of 200 U/ml horseradish peroxidase (HRP) mother solution and 45 ul of 100 mM benzylamine were tanken and added to 4.3875 ml of 1× reaction buffer.
4) After 30 min, 25 μl of the substrate working solution was added to a 384-well plate, and a final concentration was 100 μM Amplex Red reagent+0.5 U/mL HRP+0.5 mM benzylamine, respectively.
5) The reaction was carried out in the dark at room temperature for 60 minutes, and the fluorescence value was measured by Envision: the excitation wave was 535 nm, and the emission wave was 590 nm.
6) Inhibition rate calculation formula: % inhibition rate=(1−(test hole minus background−positive control well minus background)/(negative control well minus background-positive control well minus background))*100
7) The data were analyzed with Prism. The IC50 of the sample against VAP-1 cells was calculated.

Data on 11 molecules can be found in US11001563B2, “SSAO inhibitor” (SHANDONG DANHONG PHARMACEUTICAL CO., LTD., priority 2017, dated 2021).

T1 sequence (Q16853 whole entry): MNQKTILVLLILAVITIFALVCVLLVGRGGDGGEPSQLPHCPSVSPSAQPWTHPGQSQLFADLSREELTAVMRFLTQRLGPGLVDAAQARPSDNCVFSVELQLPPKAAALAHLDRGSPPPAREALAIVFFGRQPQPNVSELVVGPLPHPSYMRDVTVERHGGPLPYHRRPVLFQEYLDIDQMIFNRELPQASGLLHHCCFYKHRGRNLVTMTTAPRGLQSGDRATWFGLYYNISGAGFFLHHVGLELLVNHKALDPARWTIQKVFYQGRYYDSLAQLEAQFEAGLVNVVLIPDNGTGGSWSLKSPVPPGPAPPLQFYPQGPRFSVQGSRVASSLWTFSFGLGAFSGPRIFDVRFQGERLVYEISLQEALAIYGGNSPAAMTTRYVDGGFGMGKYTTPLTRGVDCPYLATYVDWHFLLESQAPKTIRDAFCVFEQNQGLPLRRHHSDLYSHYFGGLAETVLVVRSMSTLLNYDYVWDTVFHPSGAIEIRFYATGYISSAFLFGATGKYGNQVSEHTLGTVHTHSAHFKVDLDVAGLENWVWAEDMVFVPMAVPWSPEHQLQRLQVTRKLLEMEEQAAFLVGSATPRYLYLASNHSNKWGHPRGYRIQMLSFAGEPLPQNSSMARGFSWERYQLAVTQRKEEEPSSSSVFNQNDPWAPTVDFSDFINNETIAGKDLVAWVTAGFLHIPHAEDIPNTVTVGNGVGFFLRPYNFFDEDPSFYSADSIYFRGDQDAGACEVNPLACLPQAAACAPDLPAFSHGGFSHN
Chain of hERG potassium channel (Q12809 whole entry): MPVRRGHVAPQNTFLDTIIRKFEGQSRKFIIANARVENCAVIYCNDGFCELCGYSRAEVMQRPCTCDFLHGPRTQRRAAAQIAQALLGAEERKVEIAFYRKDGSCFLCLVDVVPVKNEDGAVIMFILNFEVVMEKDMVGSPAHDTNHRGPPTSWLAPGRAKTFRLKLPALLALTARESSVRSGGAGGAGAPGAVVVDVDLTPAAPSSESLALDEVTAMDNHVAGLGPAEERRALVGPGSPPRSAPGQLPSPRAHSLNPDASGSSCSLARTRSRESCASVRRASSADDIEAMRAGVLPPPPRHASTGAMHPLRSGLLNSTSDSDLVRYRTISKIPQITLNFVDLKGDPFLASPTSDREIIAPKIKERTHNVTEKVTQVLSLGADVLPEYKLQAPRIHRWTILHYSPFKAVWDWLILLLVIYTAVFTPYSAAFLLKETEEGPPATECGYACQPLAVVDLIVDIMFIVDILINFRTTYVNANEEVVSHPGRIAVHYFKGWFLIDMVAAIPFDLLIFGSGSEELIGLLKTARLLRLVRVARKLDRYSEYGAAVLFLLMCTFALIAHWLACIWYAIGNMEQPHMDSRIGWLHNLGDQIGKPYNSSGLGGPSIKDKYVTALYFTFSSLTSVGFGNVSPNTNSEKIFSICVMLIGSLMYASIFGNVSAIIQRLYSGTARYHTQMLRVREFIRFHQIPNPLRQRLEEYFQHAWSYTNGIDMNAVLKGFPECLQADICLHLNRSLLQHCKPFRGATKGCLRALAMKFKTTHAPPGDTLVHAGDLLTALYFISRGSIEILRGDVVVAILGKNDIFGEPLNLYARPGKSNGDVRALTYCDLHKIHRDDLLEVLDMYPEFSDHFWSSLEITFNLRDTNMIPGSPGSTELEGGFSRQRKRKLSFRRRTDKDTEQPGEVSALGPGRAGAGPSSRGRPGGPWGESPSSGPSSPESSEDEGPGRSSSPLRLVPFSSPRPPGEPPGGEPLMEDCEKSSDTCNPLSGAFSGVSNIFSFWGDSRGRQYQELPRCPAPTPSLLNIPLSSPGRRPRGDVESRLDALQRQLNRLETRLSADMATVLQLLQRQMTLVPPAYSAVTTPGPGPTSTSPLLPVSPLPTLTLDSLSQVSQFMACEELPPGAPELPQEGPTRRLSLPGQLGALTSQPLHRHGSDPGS
Chain of CYP3A4 (P08684 whole entry): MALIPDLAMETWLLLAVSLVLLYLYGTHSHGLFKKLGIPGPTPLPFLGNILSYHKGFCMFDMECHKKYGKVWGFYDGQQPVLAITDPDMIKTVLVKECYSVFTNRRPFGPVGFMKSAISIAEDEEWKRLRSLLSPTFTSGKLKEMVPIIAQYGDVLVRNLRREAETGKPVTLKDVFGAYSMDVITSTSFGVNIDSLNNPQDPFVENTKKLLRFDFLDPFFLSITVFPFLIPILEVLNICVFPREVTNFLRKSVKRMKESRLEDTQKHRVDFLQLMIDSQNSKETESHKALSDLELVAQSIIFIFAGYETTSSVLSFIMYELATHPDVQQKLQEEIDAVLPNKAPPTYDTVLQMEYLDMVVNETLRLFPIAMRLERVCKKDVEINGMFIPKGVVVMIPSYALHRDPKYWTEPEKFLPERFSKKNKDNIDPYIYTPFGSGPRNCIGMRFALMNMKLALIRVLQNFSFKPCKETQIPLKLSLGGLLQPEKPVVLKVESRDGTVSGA
Chain of CYP1A2 (P05177 whole entry): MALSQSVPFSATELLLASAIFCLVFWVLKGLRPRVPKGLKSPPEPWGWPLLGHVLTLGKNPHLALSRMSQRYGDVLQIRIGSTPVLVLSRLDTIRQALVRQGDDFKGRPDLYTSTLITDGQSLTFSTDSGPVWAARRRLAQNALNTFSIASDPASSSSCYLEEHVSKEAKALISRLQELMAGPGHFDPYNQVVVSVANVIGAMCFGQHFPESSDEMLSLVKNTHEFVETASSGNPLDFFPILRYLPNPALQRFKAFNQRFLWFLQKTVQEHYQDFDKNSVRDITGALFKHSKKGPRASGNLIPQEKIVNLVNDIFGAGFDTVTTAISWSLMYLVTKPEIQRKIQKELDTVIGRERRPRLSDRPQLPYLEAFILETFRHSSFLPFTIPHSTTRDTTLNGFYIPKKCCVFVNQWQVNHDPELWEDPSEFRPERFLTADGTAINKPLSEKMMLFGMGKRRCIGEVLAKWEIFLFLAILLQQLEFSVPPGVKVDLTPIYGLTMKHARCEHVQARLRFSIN
Chain of CYP2C19 (P33261 whole entry): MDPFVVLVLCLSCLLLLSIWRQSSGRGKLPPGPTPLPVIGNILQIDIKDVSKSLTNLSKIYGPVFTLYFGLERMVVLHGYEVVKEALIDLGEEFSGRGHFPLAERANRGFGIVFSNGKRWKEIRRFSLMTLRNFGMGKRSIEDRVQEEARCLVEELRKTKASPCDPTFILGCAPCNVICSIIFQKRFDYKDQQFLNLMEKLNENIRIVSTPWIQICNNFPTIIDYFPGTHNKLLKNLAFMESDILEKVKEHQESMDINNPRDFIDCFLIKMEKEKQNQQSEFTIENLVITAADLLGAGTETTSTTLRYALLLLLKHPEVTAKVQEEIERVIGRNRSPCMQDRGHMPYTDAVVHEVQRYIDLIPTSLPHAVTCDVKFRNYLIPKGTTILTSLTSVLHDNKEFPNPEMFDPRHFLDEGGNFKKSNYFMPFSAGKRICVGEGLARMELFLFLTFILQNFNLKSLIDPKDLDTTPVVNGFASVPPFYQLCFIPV
Chain of CYP2C9 (P11712 whole entry): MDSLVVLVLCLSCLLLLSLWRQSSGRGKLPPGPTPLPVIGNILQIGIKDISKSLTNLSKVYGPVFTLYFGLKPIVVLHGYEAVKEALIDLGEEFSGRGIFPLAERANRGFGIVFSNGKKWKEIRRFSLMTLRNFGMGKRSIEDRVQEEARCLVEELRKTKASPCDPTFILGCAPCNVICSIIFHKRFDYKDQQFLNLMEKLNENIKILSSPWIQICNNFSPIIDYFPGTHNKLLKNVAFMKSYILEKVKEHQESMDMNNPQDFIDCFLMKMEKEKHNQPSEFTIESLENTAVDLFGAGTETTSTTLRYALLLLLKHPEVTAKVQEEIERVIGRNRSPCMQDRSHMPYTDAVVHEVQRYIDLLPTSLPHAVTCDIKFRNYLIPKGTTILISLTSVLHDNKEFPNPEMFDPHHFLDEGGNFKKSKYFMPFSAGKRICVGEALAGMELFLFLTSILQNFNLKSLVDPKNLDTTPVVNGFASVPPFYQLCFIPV
Chain of CYP2D6 (P10635 whole entry): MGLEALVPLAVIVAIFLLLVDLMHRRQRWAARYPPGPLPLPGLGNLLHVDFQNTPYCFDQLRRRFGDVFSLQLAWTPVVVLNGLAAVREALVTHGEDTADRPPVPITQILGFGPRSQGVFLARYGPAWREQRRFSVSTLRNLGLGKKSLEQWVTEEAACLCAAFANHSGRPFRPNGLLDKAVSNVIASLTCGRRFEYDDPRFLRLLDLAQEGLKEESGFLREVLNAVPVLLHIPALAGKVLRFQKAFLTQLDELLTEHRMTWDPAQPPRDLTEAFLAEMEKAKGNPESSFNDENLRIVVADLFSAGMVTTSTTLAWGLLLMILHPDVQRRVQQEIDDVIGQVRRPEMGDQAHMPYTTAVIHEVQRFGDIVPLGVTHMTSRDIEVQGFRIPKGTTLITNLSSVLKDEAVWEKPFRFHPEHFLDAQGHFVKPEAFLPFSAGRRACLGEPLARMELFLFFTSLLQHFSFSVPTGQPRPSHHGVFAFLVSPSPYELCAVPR

With `CC(C)(C)NC(=O)c1ccc(OC/C(=C/F)CN)cc1.Cl` [PXS-4728A, reference compound], the IC50 in series [1] was 9000 nM; in series [2] it was 32000 nM; in series [3], 76000 nM; in series [4], 38000 nM; in series [5] it was above 50000 nM. The “Liver Concentration” value is reported as 13140 in series [6] (@1.0 hour) and 2120 in series [6] (@4.0 hour). Further, the “Liver Concentration/Plasma Concentration ratio” value in series [6] (@1.0 hour) came out at 10; in [6] (@4.0 hour) it was 14. Moreover, the results for the “Plasma Concentration” value in [6] (@1.0 hour) and in series [6] (@4.0 hour) were 1470 and 154, respectively.
As for `Cc1noc(-c2ccc(OC/C(=C/F)CN)cc2)n1.Cl` [WX008], the IC50 is above 30000 nM in series [7] (QPatch whole cell patch clamp, CHO-hERG, 0.24-30.00 μM); 0.4 nM in [8]; 0.3 nM in series [9]. Besides, in series [7] (conclusion statement), the “Inhibition of hERG potassium current (in words)” value is “weak inhibition”.
For the molecule `CCCc1n[nH]c(-c2ccc(OC/C(=C/F)CN)cc2)n1` [WX097], the IC50 in [8] came to 0.5 nM; in [9] it was 0.3 nM.
For `NC/C(=C\F)COc1ccc(-c2nc(CC(F)(F)F)n[nH]2)cc1` [WX101], the IC50 in [8] and in series [9] was 0.4 nM in each case.
With `Cn1nc(CC(F)(F)F)nc1-c1ccc(OC/C(=C/F)CN)cc1` [WX104], the figures for the IC50 in series [8] and in series [9] were 0.3 nM and 0.7 nM, respectively.
Regarding `Cn1nc(-c2ccc(OC/C(=C/F)CN)cc2Cl)nc1N1CCOCC1` [WX107], the IC50 was 0.9 nM in series [8] and 1.5 nM in series [9].
For `CC(C)n1nc(C(F)F)nc1-c1ccc(OC/C(=C/F)CN)cc1` [WX109] the same measures were 2.8 nM and 0.7 nM.
As to `NC/C(=C\F)COc1ccc(-c2nc(C3CC3)n(CCO)n2)cc1` [WX112], the IC50 in series [8] turned out to be 1.7 nM; in series [9], 0.9 nM.
On to `NC/C(=C\F)COc1ccc(-c2nc(C3CC3)n(CC(F)(F)F)n2)cc1` [WX113], for which the IC50 is 1.1 nM in series [8] and 0.9 nM in [9].
For `Cn1nc(C2(F)CC2)nc1-c1ccc(OC/C(=C/F)CN)cc1` [WX117] the same measures were 0.7 nM and 0.9 nM.
For `CCn1nc(C2(F)CC2)nc1-c1ccc(OC/C(=C/F)CN)cc1` [WX118], the IC50 in [8] and in series [9] was 0.7 nM in each case.
